{"source": "paper PMC7004565", "about": "“Nucleotide inhibition of the pancreatic ATP-sensitive K^+ channel explored with patch-clamp fluorometry” (eLife, 2020)", "target": "Kir6.2-GFP + SUR1 (Homo sapiens, UniProt Q14654)", "sequence (Q14654 whole entry)": "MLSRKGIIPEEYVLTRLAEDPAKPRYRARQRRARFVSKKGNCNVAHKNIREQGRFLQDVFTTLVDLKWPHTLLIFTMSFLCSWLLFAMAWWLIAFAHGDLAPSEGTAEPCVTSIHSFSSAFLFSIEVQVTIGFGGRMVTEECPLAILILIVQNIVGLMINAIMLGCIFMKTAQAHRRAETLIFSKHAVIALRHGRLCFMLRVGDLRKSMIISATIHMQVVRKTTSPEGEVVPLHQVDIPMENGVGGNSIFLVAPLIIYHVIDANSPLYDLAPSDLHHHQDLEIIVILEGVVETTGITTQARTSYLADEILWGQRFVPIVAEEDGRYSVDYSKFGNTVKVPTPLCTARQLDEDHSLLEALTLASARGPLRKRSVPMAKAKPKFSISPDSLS", "sequence (Q09428 whole entry partner)": "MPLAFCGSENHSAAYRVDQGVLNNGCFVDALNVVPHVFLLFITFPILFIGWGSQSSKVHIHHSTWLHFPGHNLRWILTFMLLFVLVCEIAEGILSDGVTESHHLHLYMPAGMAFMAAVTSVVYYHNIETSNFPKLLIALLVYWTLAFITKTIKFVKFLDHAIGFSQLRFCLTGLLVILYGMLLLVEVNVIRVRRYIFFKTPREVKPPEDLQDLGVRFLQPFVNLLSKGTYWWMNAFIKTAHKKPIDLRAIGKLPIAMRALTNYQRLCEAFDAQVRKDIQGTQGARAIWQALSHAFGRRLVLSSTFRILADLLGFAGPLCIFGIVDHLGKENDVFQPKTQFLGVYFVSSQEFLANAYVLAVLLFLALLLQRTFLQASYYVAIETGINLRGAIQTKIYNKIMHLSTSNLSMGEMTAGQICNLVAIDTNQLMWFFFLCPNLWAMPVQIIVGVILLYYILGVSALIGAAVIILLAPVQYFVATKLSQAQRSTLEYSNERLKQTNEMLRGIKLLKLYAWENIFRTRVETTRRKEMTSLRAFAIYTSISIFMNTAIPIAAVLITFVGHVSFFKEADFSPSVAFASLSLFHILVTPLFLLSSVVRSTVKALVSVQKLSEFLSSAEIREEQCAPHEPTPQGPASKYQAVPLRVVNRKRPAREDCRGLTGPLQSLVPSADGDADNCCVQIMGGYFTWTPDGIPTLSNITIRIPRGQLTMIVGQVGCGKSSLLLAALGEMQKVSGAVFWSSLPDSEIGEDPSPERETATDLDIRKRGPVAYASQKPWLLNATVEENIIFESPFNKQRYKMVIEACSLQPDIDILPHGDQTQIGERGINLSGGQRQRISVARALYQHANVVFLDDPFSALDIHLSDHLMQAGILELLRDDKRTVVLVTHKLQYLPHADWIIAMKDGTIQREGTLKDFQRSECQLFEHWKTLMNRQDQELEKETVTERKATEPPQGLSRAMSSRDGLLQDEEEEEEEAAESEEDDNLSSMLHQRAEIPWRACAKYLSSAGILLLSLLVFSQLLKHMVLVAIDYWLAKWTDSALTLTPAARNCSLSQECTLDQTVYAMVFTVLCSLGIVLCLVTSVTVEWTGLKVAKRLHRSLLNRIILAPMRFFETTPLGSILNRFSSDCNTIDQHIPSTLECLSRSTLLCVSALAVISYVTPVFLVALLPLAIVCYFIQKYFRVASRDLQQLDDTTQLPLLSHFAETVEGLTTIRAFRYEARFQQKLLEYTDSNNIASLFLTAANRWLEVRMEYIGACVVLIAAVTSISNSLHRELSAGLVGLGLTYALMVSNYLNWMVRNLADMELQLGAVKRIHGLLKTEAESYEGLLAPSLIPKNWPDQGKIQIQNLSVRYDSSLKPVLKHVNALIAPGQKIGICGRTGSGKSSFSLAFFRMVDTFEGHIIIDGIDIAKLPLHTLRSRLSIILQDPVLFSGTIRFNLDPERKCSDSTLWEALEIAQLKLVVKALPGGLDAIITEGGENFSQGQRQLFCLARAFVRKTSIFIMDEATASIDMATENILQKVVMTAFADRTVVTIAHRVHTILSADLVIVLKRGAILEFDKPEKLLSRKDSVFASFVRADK", "experiment": "Bayesian MWC-type model fits to combined patch-clamp fluorometry data", "type": "biochemical", "parameters": "full length, fully ANAP-labelled Kir6.2 protein was produced and successfully trafficked to the membrane in the presence of SUR1; expressed in transfected cells; host or cells: HEK-293T", "source_text": "Our simultaneous binding and current measurements were well fit with a Monod-Wyman-Changeux (MWC)-type model (Figure 2D,E; [Monod et al., 1965]) which has been previously proposed to explain KATP channel inhibition ([Enkvetchakul and Nichols, 2003]; [Craig et al., 2008]; [Vedovato et al., 2015]). In our MWC-type model, each ligand binding event ( KA ) is independent and each bound ligand favours the closed state by the same factor ( D ). Simultaneous measurement of binding (fluorescence) and gating (current) allowed us to obtain well constrained fits to our model. To obtain free parameter ( L , KA , D ) estimates and verify that each parameter was well and uniquely determined, we employed a Bayesian Markov chain Monte Carlo (MCMC) method previously employed by [Hines et al. (2014)]. Using this approach, we constructed posterior probability distributions for the free parameters of our MWC-type model (Figure 2F, Table 3). […] Our estimate of L was quite low and broadly distributed. We repeated our fits with L fixed to a value consistent with previous single channel measurements (0.8, Popen=0.45; [John et al., 1998]; [Enkvetchakul et al., 2000]; [Ribalet et al., 2006]). This had only a very small effect on our estimates of D and KA (Figure 2—figure supplement 1). The broad distribution of L in our fit may represent current rundown which occurs during our patch-clamp recordings and is expected to affect the open-closed equilibrium.\nIn addition to the full MWC-type model we considered alternate models (Figure 2—figure supplement 2). These included a model in which only the first binding event influences the open-closed equilibrium of the channel (single-binding model; Figure 2—figure supplement 2B, Table 3), and an MWC-style model with an additional parameter C to allow for direct negative cooperativity between binding sites (negative cooperativity model; Figure 2—figure supplement 2C, Table 3). The single-binding model yielded very similar parameter estimates to our full MWC-type model (Figure 2—figure supplement 2D, Table 3). This is a consequence of D being so low that even in the MWC-type model most channels are closed when only a single nucleotide is bound. The cooperative model improved our fits, but not enough to justify the inclusion of an additional free parameter (see Discussion).\nThe MWC-type models considered (Figure 2 and Figure 2—figure supplement 2) were formulated as follows:(3) F/Fmax=KA[TNPATP](1+KA[TNPATP])^3+LDKA[TNPATP](1+DKA[TNPATP])^3/(1+KA[TNPATP])^4+L(1+DKA[TNPATP])^4 (4) open channels/total channels=L(1+DKA[TNPATP])^4/(1+KA[TNPATP])^4+L(1+DKA[TNPATP])^4\nThe first was similar to the MWC-type model, except that the channels close after one molecule of TNP-ATP binding with subsequent binding events having no effect.(7) F/Fmax=LDKA[TNPATP](1+3KA[TNPATP]+3KA2[TNPATP]^2+KA3[TNPATP]^3)+KA[TNPATP](1+KA[TNPATP])^3/L(1+4DKA[TNPATP]+6DKA2[TNPATP]^2+4DKA3[TNPATP]^3+DKA4[TNPATP]^4)+(1+KA[TNPATP])^4 (8) I/Imax=L(1+4DKA[TNPATP]+6DKA2[TNPATP]^2+4DKA3[TNPATP]^3+DKA4[TNPATP]^4)/L(1+4DKA[TNPATP]+6DKA2[TNPATP]^2+4DKA3[TNPATP]^3+DKA4[TNPATP]^4)+(1+KA[TNPATP])^4⋅1+L/L\nThe second alternate model was the same as the full MWC model, but with an additional term C describing binding cooperativity between Kir6.2 subunits.(9) F/Fmax=LDKA[TNPATP](1+3CDKA[TNPATP]+3C^2D^2KA2[TNPATP]^2+C^3D^3KA3[TNPATP]^3)+KA[TNPATP](1+3CKA[TNPATP])+3C^2KA2[TNPATP]^2+C^3KA3[TNPATP]^3)/L(1+4DKA[TNPATP]+6CD^2KA2[TNPATP]^2+4C^2D^3KA3[TNPATP]^3+C^3D^4KA4[TNPATP]^4)+1+4KA[TNPATP]+6CKA2[TNPATP]^2+4C^2KA3[TNPATP]^3+C^3KA4[TNPATP]^4 (10) I/Imax=L(1+4DKA[TNPATP]+6CD^2KA2[TNPATP]^2+4C^2D^3KA3[TNPATP]^3+C^3D^4KA4[TNPATP]^4)/L(1+4DKA[TNPATP]+6CD^2KA2[TNPATP]^2+4C^2D^3KA3[TNPATP]^3+C^3D^4KA4[TNPATP]^4)+1+4KA[TNPATP]+6C^2KA2[TNPATP]^2+4C^2KA3[TNPATP]^3+C^3KA4[TNPATP]^4⋅1+L/L […]", "key": {"[1]": {"settings": "Full MWC model, median estimate"}, "[2]": {"settings": "Single-site (single-binding) model"}}, "note": "Where “and” joins values, the source holds several entries; their conditions need not be identical. Equal entries are not always repeated. Where two headings read alike, the source gives them in different places.", "data": [{"smiles": "Nc1ncnc2c1ncn2[C@@H]1O[C@H](COP(=O)(O)OP(=O)(O)OP(=O)(O)O)[C@H]2OC3(O[C@H]21)C([N+](=O)[O-])=CC(=[N+]([O-])[O-])C=C3[N+](=O)[O-]", "note": "(stereo partly shown) [TNP-ATP, trinitrophenyl-ATP]", "values": [{"measurement": "KA", "setting": "Full MWC model, PCF, inhibitory site on Kir6.2", "value": 21000, "unit": "M⁻¹"}, {"measurement": "Kd", "setting": "Full MWC model, from KA, read-out: KD", "value": "47.9 µM and 48 µM"}, {"measurement": "L", "setting": "Full MWC model, linear value", "value": 0.09}, {"measurement": "D (factor by which nucleotide binding favours channel closure)", "setting": "[1]", "value": 0.04}, {"measurement": "L (unliganded open-closed equilibrium constant)", "setting": "[1]", "value": "−1.05", "unit": "log10"}, {"measurement": "Popen", "setting": "Full MWC model, unliganded, from L", "value": 0.08}, {"measurement": "C (binding cooperativity between Kir6.2 subunits)", "setting": "Negative cooperativity model", "value": 0.17}, {"measurement": "D (factor by which nucleotide binding favours channel closure)", "setting": "Negative cooperativity model", "value": 0.15}, {"measurement": "L (unliganded open-closed equilibrium constant)", "setting": "Negative cooperativity model", "value": "−0.42", "unit": "log10"}, {"measurement": "Kd", "setting": "Negative cooperativity model, read-out: KA (intrinsic binding affinity to the closed state) (converted)", "value": 15.1, "unit": "µM"}, {"measurement": "D (factor by which nucleotide binding favours channel closure)", "setting": "[2]", "value": 0.05}, {"measurement": "L (unliganded open-closed equilibrium constant)", "setting": "[2]", "value": "−1.06", "unit": "log10"}, {"measurement": "Kd", "setting": "Single-site (single-binding) model, read-out: KA (intrinsic binding affinity to the closed state) (converted)", "value": 46.8, "unit": "µM"}]}]}
